The test has as its system T1, BtSUC5.
T1 construct: full-length ORF expressed in Drosophila S2 cells; secreted protein fraction (culture supernatant) assayed
Kind of test: LC-MS transglucosidation assay, S2 cell culture supernatant. The class given is biochemical, Bemisia tabaci. The settings on record: 1 M sucrose as glucosyl donor; phosphate buffer pH 7.0; 25 °C; 30 min; glucosyl acceptor.

Each structure is given as a SMILES string.

A word on the Km: it is the substrate concentration at which the rate is half of its maximum. Turning to `CC(C)(C#N)O[C@@H]1O[C@H](CO)[C@@H](O)[C@H](O)[C@H]1O` [linamarin], the Km was ~500 µM.

Source of the values: PMC8225905, “Activation and detoxification of cassava cyanogenic glucosides by the whitefly Bemisia tabaci” (Scientific Reports, 2021).
